Test results published in patent US20260137819A1 (Radionetics Oncology, Inc., priority 2022, published 2026).

molecular target: T1, human follicle-stimulating hormone receptor (FSHR) (Homo sapiens, UniProt P23945); assay: Measurement of agonist cAMP production by activation of human FSHR; format: cell-based; conditions: CHO-K1 human FSHR cells, 30 minutes at 37° C., HTRF cAMP kit; read-out: hFSHR Agonist cAMP EC50
T1 construct: host or cells: CHO-K1
T1 sequence (P23945 18-695): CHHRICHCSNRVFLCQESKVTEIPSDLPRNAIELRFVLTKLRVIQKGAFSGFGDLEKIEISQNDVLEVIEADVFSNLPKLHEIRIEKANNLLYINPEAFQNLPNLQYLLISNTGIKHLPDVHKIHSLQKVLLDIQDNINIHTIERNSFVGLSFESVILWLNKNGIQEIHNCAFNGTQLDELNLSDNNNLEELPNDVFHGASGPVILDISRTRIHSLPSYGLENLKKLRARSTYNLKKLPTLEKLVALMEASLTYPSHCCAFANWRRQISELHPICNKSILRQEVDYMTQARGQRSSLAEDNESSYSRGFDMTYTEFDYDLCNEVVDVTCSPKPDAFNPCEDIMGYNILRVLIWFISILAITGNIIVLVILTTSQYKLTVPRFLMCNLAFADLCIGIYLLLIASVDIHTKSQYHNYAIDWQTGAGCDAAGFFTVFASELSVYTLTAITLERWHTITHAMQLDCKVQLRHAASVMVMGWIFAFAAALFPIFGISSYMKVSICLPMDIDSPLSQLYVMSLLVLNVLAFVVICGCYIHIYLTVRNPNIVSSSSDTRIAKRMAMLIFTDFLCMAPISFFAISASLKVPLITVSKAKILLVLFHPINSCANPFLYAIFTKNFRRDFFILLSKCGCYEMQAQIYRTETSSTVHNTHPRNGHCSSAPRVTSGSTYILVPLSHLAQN
Method in brief: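 cAMP output was measured by HTRF after 30 min at 37 °C agonist exposure (0–10,000 nM final) in stably FSHR-transfected CHO-K1 cells. Lysate cAMP was read off a standard curve and fitted to obtain half-maximal EC50.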

Structure (SMILES)	EC50 [nM]
COc1cc2c(cc1-c1cccc(OCCCNC(=O)[C@@H](CCC(=O)O)NCCOCCNC(=O)[C@H](CS(=O)(=O)O)NC(=O)CN3CCN(CC(=O)O)CCN(CC(=O)O)CCN(CC(=O)O)CC3)c1)-c1c(c(C(=O)N3CCOCC3(C)C)nn1-c1cc(Cl)cc(Cl)c1)CO2 [Compound 74, 2,2′,2″-(10-((4R,13R)-13-(2-carboxyethyl)-18-(3-(1-(3,5-dichlorophenyl)-3(3,3-dimethylmorpholine-4-carbonyl)-7-methoxy-1,4-dihydrochromeno[4,3-c]pyrazol-8-yl)phenoxy)-2,5,14-trioxo-4-(sulfomethyl)-9-oxa-3,6,12,15-tetraazaoctadecyl)-1,4,7,10-tetraazacyclododecane-1,4,7-triyl)triacetic acid--2,2,2-trifluoroacetic acid (1/1)]	10 to 100
COc1cc2c(cc1-c1cncc(NC(=O)CCOCCOCCOCCOCCNC(=O)[C@H](CS(=O)(=O)O)NC(=O)CN3CCN(CC(=O)O)CCN(CC(=O)O)CCN(CC(=O)O)CC3)c1)-c1c(c(C(=O)N3CCOCC3(C)C)nn1-c1cc(Cl)cc(Cl)c1)CO2 [Compound 80]	10 to 100
COc1cc2c(cc1-c1cncc(NC(=O)CCCNC(=O)[C@@H](CCCNC(=N)N)NC(=O)CCNC(=O)CN3CCN(CC(=O)O)CCN(CC(=O)O)CCN(CC(=O)O)CC3)c1)-c1c(c(C(=O)N3CCOCC3(C)C)nn1-c1cc(Cl)cc(Cl)c1)CO2 [Compound 81, (R)-2,2′,2″-(10-(2-((3-((1-((4-((5-(1-(3,5-dichlorophenyl)-3-(3,3dimethylmorpholine-4-carbonyl)-7-methoxy-1,4-dihydrochromeno|4,3-clpyrazol-8-yl)pyridin-3-yl)amino)-4-oxobutyl)amino)-5-guanidino-1-oxopentan-2-yl)amino)-3-oxopropyl)amino)-2-oxoethyl)-1,4,7,10-tetraazacyclododecane-1,4,7-triyl)triacetic acid--2,2,2-trifluoroacetic acid (1/1)]	< 10

The next lines start with the values.

EC50 [nM]	Structure (SMILES)
10 to 100	COc1cc2c(cc1-c1cccc(OCCOCCOCCOCCOCCNC(=O)[C@H](CS(=O)(=O)O)NC(=O)CN3CCN(CC(=O)O)CCN(CC(=O)O)CCN(CC(=O)O)CC3)c1)-c1c(c(C(=O)N3CC(=O)NCC3(C)C)nn1-c1cc(Cl)cc(Cl)c1)CO2 [Compound 75]
10 to 100	COc1cc2c(cc1-c1cncc(OCCOCCOCCOCCOCCNC(=O)[C@H](CS(=O)(=O)O)NC(=O)CN3CCN(CC(=O)O)CCN(CC(=O)O)CCN(CC(=O)O)CC3)c1)-c1c(c(C(=O)N3CCCN(C(=O)C4CCC4)CC3)nn1-c1cccs1)CO2 [Compound 76, (R)-2,2′,2″-(10-(20-((5-(3-(4-(cyclobutanecarbonyl)-1,4-diazepane-1carbonyl)-7-methoxy-1-(thiophen-2-yl)-1,4-dihydrochromeno[4,3-c]pyrazol-8-yl)pyridin-3-yl)oxy)-2,5-dioxo-4-(sulfomethyl)-9,12,15,18-tetraoxa-3,6-diazaicosyl)-1,4,7,10-tetraazacyclododecane-1,4,7-triyl)triacetic acid]
10 to 100	COc1cc2c(cc1-c1cncc(OCCCNC(=O)[C@@H](CCC(=O)O)NC(=O)CCNC(=O)CN3CCN(CC(=O)O)CCN(CC(=O)O)CCN(CC(=O)O)CC3)c1)-c1c(c(C(=O)N3CCCN(C(=O)C4CCC4)CC3)nn1-c1cccs1)CO2 [Compound 77]
< 10	COc1cc2c(cc1-c1cncc(OCCCNC(=O)[C@@H](CCCNC(=N)N)NC(=O)CCNC(=O)CN3CCN(CC(=O)O)CCN(CC(=O)O)CCN(CC(=O)O)CC3)c1)-c1c(c(C(=O)N3CCCN(C(=O)C4CCC4)CC3)nn1-c1cccs1)CO2 [Compound 78, (R)-2,2′,2″-(10-(2-((3-((1-((3-((5-(3-(4-(cyclobutanecarbonyl)-1,4-diazepane-1carbonyl)-7-methoxy-1-(thiophen-2-yl)-1,4-dihydrochromeno|4,3-c|pyrazol-8-yl)pyridin-3-yl)oxy)propyl)amino)-5-guanidino-1-oxopentan-2-yl)amino)-3-oxopropyl)amino)-2-oxoethyl)-1,4,7,10-tetraazacyclododecane-1,4,7-triyl)triacetic acid--2,2,2-trifluoroacetic acid (1/1)]
